Reference: patent publication EP4711355A1, “CRYSTAL FORM OF LIPOPROTEIN COMPOUND AND PREPARATION METHOD THEREFOR” (Jiangsu Hengrui Pharmaceuticals Co., Ltd., priority 2023, dated 2024)
Counter-ions that a name gives are not always drawn.

What was measured:
Assay type in all cases: physicochemical
[1] = Long-term accelerated stability test (Test Example 3), sealed in aluminum foil bags; settings: for physicochemical stability: 25°C/60%RH and 40°C/75%RH for 6 months
[2] = DVS hygroscopicity test (dynamic moisture sorption); settings: at 80% RH; listed as hydrochloride crystal form e
Experimental: DVS stands for dynamic moisture sorption: using the Surface Measurement Systems instrument, humidity started at 50% and the humidity range investigated was 0%-95% with a step of 10%. The judgment standard is that the mass change of each gradient dM/dT is ≤ 0.002%, TMAX is 360 min, and there are two cycles.

[3] = Long-term accelerated stability test (Test Example 4), sealed in aluminum foil bag (nitrogen-filled)

For `O=C(O)[C@@H](Cc1cccc(CN(CCOc2cccc(C[C@H](C(=O)O)[C@H]3CCNC3)c2)Cc2cccc(C[C@H](C(=O)O)[C@H]3CCNC3)c2)c1)[C@H]1CCNC1` [hydrochloride (1:1) amorphous form, (2S)-3-(3-{[(2-{3-[(2S)-2-carboxyl-2-[(3R)-pyrrolidin-3-yl]ethyl]phenoxy}ethyl)({3-[(2S)-2-carboxyl-2-[(3R)-pyrrolidin-3-yl]ethyl]phenyl}methyl)amino]methyl}phenyl)-2-[(3R)-pyrrolidin-3-yl]propionic acid], the Crystal form ([1]; 0 day) was “Amorphous form”, the “Purity (%)” value ([1]; 0 day) was 98.8% and the Crystal form ([1]; 25°C-60%RH, 1 month) was “Crystal form a”. For the same compound, the “Purity (%)” value ([1]; 25°C-60%RH, 1 month) was 98.7%, the Crystal form ([1]; 25°C-60%RH, 2 months) was “Crystal form a” and the “Purity (%)” value ([1]; 25°C-60%RH, 2 months) was 98.6%. For the same compound, the Crystal form ([1]; 25°C-60%RH, 3 months) was “Crystal form a”, the “Purity (%)” value ([1]; 25°C-60%RH, 3 months) was 98.2% and the Crystal form ([1]; 25°C-60%RH, 7 days) was “Unchanged”. For the same compound, the “Purity (%)” value ([1]; 25°C-60%RH, 7 days) was 98.8%, the Crystal form ([1]; 25°C-60%RH, 14 days) was “Unchanged” and the “Purity (%)” value ([1]; 25°C-60%RH, 14 days) was 98.8%. For the same compound, the physicochemical stability [1] was “slightly less stable”, the Crystal form ([1]; 40°C-75%RH, 1 month) was “Crystal form a” and the “Purity (%)” value ([1]; 40°C-75%RH, 1 month) was 97.6%. The Crystal form ([1]; 40°C-75%RH, 2 months) was “Crystal form a”, the “Purity (%)” value ([1]; 40°C-75%RH, 2 months) was 95.6% and the Crystal form ([1]; 40°C-75%RH, 3 months) was “Crystal form a”. For the same compound, the “Purity (%)” value ([1]; 40°C-75%RH, 3 months) was 95.3%, the Crystal form ([1]; 40°C-75%RH, 7 days) was “Crystal form a” and the “Purity (%)” value ([1]; 40°C-75%RH, 7 days) was 98.3%. The Crystal form ([1]; 40°C-75%RH, 14 days) was “Crystal form a” and the “Purity (%)” value ([1]; 40°C-75%RH, 14 days) was 98.1%.
With `O=C(O)[C@@H](Cc1cccc(CN(CCOc2cccc(C[C@H](C(=O)O)[C@H]3CCNC3)c2)Cc2cccc(C[C@H](C(=O)O)[C@H]3CCNC3)c2)c1)[C@H]1CCNC1` [hydrochloride (1:1) crystal form e, (2S)-3-(3-{[(2-{3-[(2S)-2-carboxyl-2-[(3R)-pyrrolidin-3-yl]ethyl]phenoxy}ethyl)({3-[(2S)-2-carboxyl-2-[(3R)-pyrrolidin-3-yl]ethyl]phenyl}methyl)amino]methyl}phenyl)-2-[(3R)-pyrrolidin-3-yl]propionic acid] the “DVS hygroscopicity weight gain” value [2] was 18%, the Crystal form ([1]; 0 day) was “Hydrochloride crystal form e” and the “Purity (%)” value ([1]; 0 day) was 99.9%. For the same compound, the Crystal form ([1]; 25°C-60%RH, 1 month) was “Unchanged”, the “Purity (%)” value ([1]; 25°C-60%RH, 1 month) was 99.9% and the Crystal form ([1]; 25°C-60%RH, 3 months) was “Unchanged”. The “Purity (%)” value ([1]; 25°C-60%RH, 3 months) was 99.9%, the Crystal form ([1]; 25°C-60%RH, 6 months) was “Unchanged” and the “Purity (%)” value ([1]; 25°C-60%RH, 6 months) was 99.9%. The Crystal form ([1]; 25°C-60%RH, 7 days) was “Unchanged”, the “Purity (%)” value ([1]; 25°C-60%RH, 7 days) was 99.9% and the Crystal form ([1]; 25°C-60%RH, 14 days) was “Unchanged”. For the same compound, the “Purity (%)” value ([1]; 25°C-60%RH, 14 days) was 99.9%, the physicochemical stability [1] was “good” and the Crystal form ([1]; 40°C-75%RH, 1 month) was “Unchanged”. The “Purity (%)” value ([1]; 40°C-75%RH, 1 month) was 99.9%, the Crystal form ([1]; 40°C-75%RH, 3 months) was “Unchanged” and the “Purity (%)” value ([1]; 40°C-75%RH, 3 months) was 99.9%. The Crystal form ([1]; 40°C-75%RH, 6 months) was “Unchanged”, the “Purity (%)” value ([1]; 40°C-75%RH, 6 months) was 99.9% and the Crystal form ([1]; 40°C-75%RH, 7 days) was “Unchanged”. The “Purity (%)” value ([1]; 40°C-75%RH, 7 days) was 99.9%, the Crystal form ([1]; 40°C-75%RH, 14 days) was “Unchanged” and the “Purity (%)” value ([1]; 40°C-75%RH, 14 days) was 99.9%.
With `O=C(O)[C@@H](Cc1cccc(CN(CCOc2cccc(C[C@H](C(=O)O)[C@H]3CCNC3)c2)Cc2cccc(C[C@H](C(=O)O)[C@H]3CCNC3)c2)c1)[C@H]1CCNC1` [free crystal form C, (2S)-3-(3-{[(2-{3-[(2S)-2-carboxyl-2-[(3R)-pyrrolidin-3-yl]ethyl]phenoxy}ethyl)({3-[(2S)-2-carboxyl-2-[(3R)-pyrrolidin-3-yl]ethyl]phenyl}methyl)amino]methyl}phenyl)-2-[(3R)-pyrrolidin-3-yl]propionic acid] the Crystal form ([3]; 0 day) was “Crystal form C”, the “Purity (%)” value ([3]; 0 day) was 99.8% and the Crystal form ([3]; 25°C-60%RH, 1 month) was “Unchanged”. The “Purity (%)” value ([3]; 25°C-60%RH, 1 month) was 99.8%, the Crystal form ([3]; 25°C-60%RH, 3 months) was “Unchanged” and the “Purity (%)” value ([3]; 25°C-60%RH, 3 months) was 99.7%. For the same compound, the Crystal form ([3]; 25°C-60%RH, 6 months) was “Unchanged”, the “Purity (%)” value ([3]; 25°C-60%RH, 6 months) was 99.7% and the Crystal form ([3]; 25°C-60%RH, 7 days) was “Unchanged”. The “Purity (%)” value ([3]; 25°C-60%RH, 7 days) was 99.8%, the Crystal form ([3]; 25°C-60%RH, 14 days) was “Unchanged” and the “Purity (%)” value ([3]; 25°C-60%RH, 14 days) was 99.8%. The physicochemical stability ([3]; 25°C/60%RH and 40°C/75%RH for 6 months) was “good”, the Crystal form ([3]; 40°C-75%RH, 1 month) was “Unchanged” and the “Purity (%)” value ([3]; 40°C-75%RH, 1 month) was 99.8%. The Crystal form ([3]; 40°C-75%RH, 3 months) was “Unchanged”, the “Purity (%)” value ([3]; 40°C-75%RH, 3 months) was 99.3% and the Crystal form ([3]; 40°C-75%RH, 6 months) was “Unchanged”. For the same compound, the “Purity (%)” value ([3]; 40°C-75%RH, 6 months) was 99.3%, the Crystal form ([3]; 40°C-75%RH, 7 days) was “Unchanged” and the “Purity (%)” value ([3]; 40°C-75%RH, 7 days) was 99.8%. The Crystal form ([3]; 40°C-75%RH, 14 days) was “Unchanged” and the “Purity (%)” value ([3]; 40°C-75%RH, 14 days) was 99.8%.
